System: adjuvant/arthritis model
Test: Test 6: antiarthritic effect in the adjuvant/arthritis model
Format: in vivo, rat (Wistar-Lewis)
Details: Rattus norvegicus, po, 408 h, 50 mg/kg orally, daily for 17 days; rat; read-out: Test 6 Paw volume (% inhibition)

With `CC(O)c1cc(-c2cc(C(C)(C)C)c(O)c(C(C)(C)C)c2)no1` (stereo not shown) [Example 28] the inhibition in vivo at 50 mg/kg was 74%.

From patent US5814627A, “3, 5-disubstituted and 3, 4, 5-trisubstituted 2-isoxazolines and isoxazoles, process for their preparation and their use as pharmaceuticals” (Hoechst Aktienegesellschaft, priority 1994, dated 1998)
